From patent publication US11129827B2 (priority 2017, dated 2021) come the findings set out here.

Read-outs that look alike come from different tables or passages of the source. Bounds are passed on as bounds.

For experiment [1], the target named is FAAH (Homo sapiens (Human), UniProt O00519). The experiment can be described thus: biochemical. Particulars: for inhibition at 1 µM: read-out: FAAH (human) % inh. 1 μM.
Experiment [2] deals with MAGL (Homo sapiens (Human), UniProt Q99685). As to the kind of experiment: biochemical. Particulars: for inhibition at 1 µM: read-out: MAGL (human) % inh. 1 μM.
Experiment [3] addresses FAAH (Mus musculus (Mouse), UniProt O08914). The experiment can be described thus: in vivo. Particulars: po, read-out: FAAH (mouse) % inh. 5 mg/kg.
For experiment [4], the target named is MAGL (Mus musculus (Mouse), UniProt O35678). The experiment can be described thus: in vivo. Particulars: po, read-out: MAGL (mouse) % inh. 5 mg/kg.

With `O=C(Oc1cncc(C(F)(F)F)c1)N1CCC2(CC1)CN(Cc1cccc(Oc3nc4ccccc4s3)c1)C2` [Example 7, 5-(Trifluoromethyl)pyridin-3-yl 2-(3-(benzo[d]thiazol-2-yloxy)benzyl)-2,7-diazaspiro[3.5]nonane-7-carboxylate], the inhibition at 1 µM in experiment [1] and in experiment [2] was above 75% each time. Further, the 50% inhibitory concentration (IC50) in experiment [1] (read-out: FAAH (human) IC50) and in experiment [2] (read-out: MAGL (human) IC50) was below 0.1 µM each time. The inhibition at 5 mg/kg in experiment [3] was above 75%; in experiment [4] it was 25 to 50%.
As to `C[C@@H]1CN(Cc2cccc(OC(F)(F)F)c2)CCN1C(=O)Oc1cncc(C(N)=O)c1` [Example 74, (R)-5-Carbamoylpyridin-3-yl 2-methyl-4-(3-(trifluoromethoxy)benzyl)piperazine-1-carboxylate], the IC50 in experiment [1] was below 0.1 µM; in experiment [2] (read-out: MAGL (human) IC50) it was 0.1 to 1 µM. For the same molecule, the inhibition at 1 µM in experiment [1] was above 75%; in experiment [2], 25 to 50%. Besides, the inhibition at 5 mg/kg in experiment [3] and in experiment [4] was above 75% in each case.
Turning to `C[C@@H]1CN(Cc2cc(F)cc(C(F)(F)F)c2)CCN1C(=O)Oc1cncc(C(N)=O)c1` [Example 20, 5-Carbamoylpyridin-3-yl (R)-4-(3-fluoro-5-(trifluoromethyl)benzyl)-2-methylpiperazine-1-carboxylate], the inhibition at 1 µM in experiment [1] and in experiment [2] was above 75% in each case. The IC50 in experiment [1] (read-out: FAAH (human) IC50) and in experiment [2] (read-out: MAGL (human) IC50) was below 0.1 µM throughout. Further, the inhibition at 5 mg/kg in experiment [3] and in experiment [4] was above 75% in each case.
Regarding `CC(C)Oc1ccc(CN2CCN(C(=O)Oc3cncc(C(N)=O)c3)CC2)c(OC(F)(F)F)c1` [Example 18, 5-Carbamoylpyridin-3-yl 4-(4-isopropoxy-2-(trifluoromethoxy)benzyl)piperazine-1-carboxylate], the inhibition at 1 µM in experiment [1] and in experiment [2] was above 75% in each case. For the same molecule, the IC50 in experiment [1] (read-out: FAAH (human) IC50) and in experiment [2] (read-out: MAGL (human) IC50) was 0.1 to 1 µM throughout. Further, the inhibition at 5 mg/kg in experiment [3] and in experiment [4] was above 75% each time.
`NC(=O)c1cncc(OC(=O)N2CCC3(CCN(Cc4cc(Cl)ccc4C(F)(F)F)C3)CC2)c1` [Example 4, 5-Carbamoylpyridin-3-yl 2-(5-chloro-2-(trifluoromethyl)benzyl)-2,8-diazaspiro[4.5]decane-8-carboxylate]: the inhibition at 1 µM in experiment [1] and in experiment [2] was above 75% each time. For the same molecule, the IC50 in experiment [1] (read-out: FAAH (human) IC50) and in experiment [2] (read-out: MAGL (human) IC50) was below 0.1 µM each time. The inhibition at 5 mg/kg in experiment [3] and in experiment [4] was above 75% in each case.
Take `NC(=O)c1cncc(OC(=O)N2CCC3(CCN(Cc4ccc(Cl)c(Cl)c4)C3)CC2)c1` [Example 36, 5-Carbamoylpyridin-3-yl 2-(3,4-dichlorobenzyl)-2,8-diazaspiro[4.5]decane-8-carboxylate]: the inhibition at 1 µM in experiment [1] and in experiment [2] was above 75% in each case. Further, the IC50 in experiment [1] (read-out: FAAH (human) IC50) and in experiment [2] (read-out: MAGL (human) IC50) was below 0.1 µM throughout. For the same molecule, the inhibition at 5 mg/kg in experiment [3] was above 75%; in experiment [4], 25 to 50%.
Turning to `C[C@@H]1CN(Cc2cc(Cl)cc(C(F)(F)F)c2)CCN1C(=O)Oc1cncc(C(N)=O)c1` [Example 65, (R)-5-Carbamoylpyridin-3-yl 4-(3-chloro-5-(trifluoromethyl)benzyl)-2-methylpiperazine-1-carboxylate], the inhibition at 1 µM in experiment [1] and in experiment [2] was above 75% throughout. In addition, the IC50 in experiment [1] (read-out: FAAH (human) IC50) and in experiment [2] (read-out: MAGL (human) IC50) was 0.1 to 1 µM throughout. In addition, the inhibition at 5 mg/kg in experiment [3] and in experiment [4] was above 75% throughout.
Regarding `O=C(Oc1cncc(C(F)(F)F)c1)N1CCC2(CC1)CN(Cc1ccc(Oc3ccc(Cl)cc3)cc1)C2` [Example 30, 5-(Trifluoromethyl)pyridin-3-yl 2-(4-(4-chlorophenoxy)benzyl)-2,7-diazaspiro[3.5]nonane-7-carboxylate], the figures for the IC50 in experiment [1] and in experiment [2] (read-out: MAGL (human) IC50) were 1 to 10 µM and 0.1 to 1 µM, respectively.
Turning to `O=C(Oc1cncc(C(F)(F)F)c1)N1CCC2(CC1)CC(Oc1cc(Cl)ccc1Cl)C2` [Example 27, 5-(Trifluoromethyl)pyridin-3-yl 2-(2,5-dichlorophenoxy)-7-azaspiro[3.5]nonane-7-carboxylate], the inhibition at 1 µM in experiment [1] and in experiment [2] was above 75% each time.
`O=C(Oc1cncc(C(F)(F)F)c1)N1CCC2(CC1)CN(Cc1cc(Cl)cc(Oc3nc4ccccc4s3)c1)C2` [Example 23, 5-(Trifluoromethyl)pyridin-3-yl 2-(3-(benzo[d]thiazol-2-yloxy)-5-chlorobenzyl)-2,7-diazaspiro[3.5]nonane-7-carboxylate]: the inhibition at 1 µM in experiment [1] and in experiment [2] was above 75% each time. For the same molecule, the IC50 in experiment [1] (read-out: FAAH (human) IC50) and in experiment [2] (read-out: MAGL (human) IC50) was below 0.1 µM in each case.
Turning to `O=C(Oc1cncc(C(F)(F)F)c1)N1CCC2(CC1)CN(Cc1cccc(Oc3ccccc3)c1Cl)C2` [Example 41, 5-(Trifluoromethyl)pyridin-3-yl 2-(2-chloro-3-phenoxybenzyl)-2,7-diazaspiro[3.5]nonane-7-carboxylate], the inhibition at 1 µM in experiment [1] and in experiment [2] was above 75% in each case.
Take `O=C(Oc1cncc(C(F)(F)F)c1)N1CCC2(CC1)CN(Cc1ccc(Oc3ccccc3Cl)cc1)C2` [Example 8, 5-(Trifluoromethyl)pyridin-3-yl 2-(4-(2-chlorophenoxy)benzyl)-2,7-diazaspiro[3.5]nonane-7-carboxylate]: the IC50 was 0.1 to 1 µM in experiment [1] (read-out: FAAH (human) IC50) and below 0.1 µM in experiment [2].
For the molecule `CC(C)Oc1cc(CN2CCN(C(=O)Oc3cncc(NS(C)(=O)=O)c3)CC2)ccc1Cl` [Example 15, 5-(Methylsulfonamido)pyridin-3-yl 4-(4-chloro-3-isopropoxybenzyl)piperazine-1-carboxylate], the results for the IC50 in experiment [1] and in experiment [2] (read-out: MAGL (human) IC50) were below 0.1 µM and 0.1 to 1 µM, respectively. For the same molecule, the inhibition at 1 µM in experiment [1] and in experiment [2] was above 75% throughout. In addition, the inhibition at 5 mg/kg in experiment [3] and in experiment [4] was 0 to 25% in each case.
Consider `O=C(Oc1cncc(C(F)(F)F)c1)N1CCC2(CC1)CN(Cc1cccc(Oc3ccccc3Cl)c1)C2` [Example 9, 5-(Trifluoromethyl)pyridin-3-yl 2-(3-(2-chlorophenoxy)benzyl)-2,7-diazaspiro[3.5]nonane-7-carboxylate], for which the IC50 in experiment [1] (read-out: FAAH (human) IC50) and in experiment [2] (read-out: MAGL (human) IC50) was 0.1 to 1 µM in each case.
For `CC(C)Oc1cc(CN2CCN(C(=O)Oc3cncc(C(N)=O)c3)[C@H](C)C2)ccc1Cl` [Example 56, (R)-5-Carbamoylpyridin-3-yl 4-(4-chloro-3-isopropoxybenzyl)-2-methylpiperazine-1-carboxylate], the inhibition at 1 µM in experiment [1] and in experiment [2] was above 75% each time. In addition, the IC50 in experiment [1] (read-out: FAAH (human) IC50) and in experiment [2] (read-out: MAGL (human) IC50) was 0.1 to 1 µM each time.
`O=C(Oc1cncc(C(F)(F)F)c1)N1CCC2(CC1)CN(Cc1ccc(Oc3cccc(Cl)c3)cc1)C2` [Example 2, 5-(Trifluoromethyl)pyridin-3-yl 2-(4-(3-chlorophenoxy)benzyl)-2,7-diazaspiro[3.5]nonane-7-carboxylate]: the IC50 fell in the range of 1 to 10 µM in experiment [1] and 0.1 to 1 µM in experiment [2] (read-out: MAGL (human) IC50).
For the molecule `O=C(Oc1cncc(C(F)(F)F)c1)N1CCC2(CC1)CN(Cc1cccc(Oc3ccccc3Cl)c1Cl)C2` [Example 13, 5-(Trifluoromethyl)pyridin-3-yl 2-(2-chloro-3-(2-chlorophenoxy)benzyl)-2,7-diazaspiro[3.5]nonane-7-carboxylate], the figures for the inhibition at 1 µM in experiment [1] and in experiment [2] were 50 to 75% and above 75%, respectively.
Regarding `Cc1ncc(C#N)cc1OC(=O)N1CCN(Cc2cccc(C(F)(F)F)c2C)C[C@H]1C` [Example 21, 5-Cyano-2-methylpyridin-3-yl (R)-2-methyl-4-(2-methyl-3-(trifluoromethyl)benzyl)piperazine-1-carboxylate], the inhibition at 1 µM is above 75% in experiment [1] and 25 to 50% in experiment [2]. Moreover, the figures for the IC50 in experiment [1] (read-out: FAAH (human) IC50) and in experiment [2] were 0.1 to 1 µM and 1 to 10 µM, respectively.
For the molecule `Cc1c(C#N)cncc1OC(=O)N1CCN(Cc2cccc(C(F)(F)F)c2C)C[C@H]1C` [Example 83, 5-Cyano-4-methylpyridin-3-yl (R)-2-methyl-4-(2-methyl-3-(trifluoromethyl)benzyl)piperazine-1-carboxylate], the figures for the IC50 in experiment [1] and in experiment [2] (read-out: MAGL (human) IC50) were below 0.1 µM and 0.1 to 1 µM, respectively. For the same molecule, the inhibition at 1 µM in experiment [1] and in experiment [2] was above 75% in each case.
In the case of `Cc1c(CN2CCN(C(=O)Oc3cncc(C(N)=O)c3)[C@H](C)C2)cccc1C(F)(F)F` [Example 58, (R)-5-Carbamoylpyridin-3-yl 2-methyl-4-(2-methyl-3-(trifluoromethyl)benzyl)piperazine-1-carboxylate], the IC50 is below 0.1 µM in experiment [1] and 0.1 to 1 µM in experiment [2] (read-out: MAGL (human) IC50). For the same molecule, the inhibition at 1 µM in experiment [1] and in experiment [2] was above 75% in each case.
In the case of `O=C(Oc1cncc(C(F)(F)F)c1)N1CCC2(CC1)CN(Cc1cccc(Oc3cccc(C(F)(F)F)n3)c1)C2` [Example 12, 5-(Trifluoromethyl)pyridin-3-yl 2-(3-((6-(trifluoromethyl)pyridin-2-yl)oxy)benzyl)-2,7-diazaspiro[3.5]nonane-7-carboxylate], the inhibition at 1 µM was 50 to 75% in experiment [1] and above 75% in experiment [2].
Turning to `CC1CCCN1c1ccc(CN2CCN(C(=O)Oc3cncc(C(N)=O)c3)CC2)c(OC(F)(F)F)c1` (stereo not shown) [Example 17, 5-Carbamoylpyridin-3-yl 4-(4-(2-methylpyrrolidin-1-yl)-2-(trifluoromethoxy)benzyl)piperazine-1-carboxylate], the inhibition at 1 µM in experiment [1] and in experiment [2] was above 75% in each case. Further, the IC50 is 0.1 to 1 µM in experiment [1] (read-out: FAAH (human) IC50) and below 0.1 µM in experiment [2].
